Assay [1] concerns the target PD-1/PD-L1 interaction (PDL1-6×His protein, PD1-Fc-Avi-Biotin protein) (Homo sapiens, UniProt Q9NZQ7). The assay is described as follows: PDL1/PD1 Binding Assay. To be noted: 0.3 nM PDL1, 2.5 nM PD1. How it is done: Compounds to be tested were serially diluted in DMSO, and further diluted in assay buffer (25 mM Hepes pH 7.4, 150 mM NaCl, 0.005% Tween 20, BSA 0.01%). Diluted compounds were added to the wells with final concentration of DMSO at 1%. PDL1-6×His protein was added to the wells, mixed well with compound. The plates were incubated for 30 min at room temperature. PD1-Fc-Avi-Biotin protein was added to the wells. […] After a binding time of 30 min at room temperature, Anti-6×His Acceptor beads (final concentration 20 ug/ml) were added to the wells, and the incubation continued for 1 h. Streptavidin Donor beads (final concentration 20 ug/mL) were added at reduced light. The plates were sealed with foil and incubated in the dark for additional 1 h or overnight before reading on an Envision reader. The IC50s were determined by fitting the curves using a four-parameter equation in Graphpad Prism 8.

In assay [2] the target is T1, PD-1/PD-L1 interaction (Jurkat cells overexpressing PD-1 co-cultured with PD-L1 expressing CHO cells) (Homo sapiens, UniProt Q9NZQ7).
T1 construct: expressed in transfected cells; Jurkat cells (PD-1 and NF-AT luciferase construct)
T1 sequence (Q9NZQ7 19-290): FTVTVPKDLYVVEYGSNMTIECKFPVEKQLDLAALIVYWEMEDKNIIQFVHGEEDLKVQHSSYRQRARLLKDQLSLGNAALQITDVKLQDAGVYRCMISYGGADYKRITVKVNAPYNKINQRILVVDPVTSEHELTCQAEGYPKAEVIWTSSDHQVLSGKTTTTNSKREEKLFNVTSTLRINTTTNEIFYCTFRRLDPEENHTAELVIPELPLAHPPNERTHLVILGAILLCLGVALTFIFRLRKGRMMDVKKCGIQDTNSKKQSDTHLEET
Put plainly: PD-1/PD-L1 NFAT Reporter Assay. The assay is classed as cell-based. To be noted: Table C-1; Jurkat/CHO co-culture, 6 hrs at 37° C., luciferase activity. How it is done:
Blocking the PD-1/PD-L1 interaction will release the inhibitory signal and results in TCR signaling and NFAT-mediated luciferase activity.
CHO cells expressing surface-bound anti-CD3 antibodies and PD-L1 were first seeded overnight and treated with the compounds. Jurkat cells overexpressing PD-1 and a luciferase construct under NF-AT promoter were then immediately seeded on the monolayer of CHO cells. The co-culture was then incubated for 6 hrs at 37° C. Luciferase activity was assessed by adding the ONE-Glo reagent and measuring luminescence with a plate reader. EC50s values were determined from the fit of the dose-response curves
For orientation: In a reporter assay the amount or activity of a reporter protein is the signal.

Where [3] appears, read: Table C-1, read-out: Biological Data Biochem PD-1/PD-L1.
Where [4] appears, read: Table C, read-out: PD-1/PD-L1 PPI IC50.

By EC50 is commonly meant the concentration needed to bring the measured effect to its halfway point. A low value points to an effect from little substance.

Like-named read-outs stand apart in the source and are kept apart here.

Chain of PD-1/PD-L1 interaction (PDL1-6×His protein, PD1-Fc-Avi-Biotin protein) (Q9NZQ7 19-238 limits assumed): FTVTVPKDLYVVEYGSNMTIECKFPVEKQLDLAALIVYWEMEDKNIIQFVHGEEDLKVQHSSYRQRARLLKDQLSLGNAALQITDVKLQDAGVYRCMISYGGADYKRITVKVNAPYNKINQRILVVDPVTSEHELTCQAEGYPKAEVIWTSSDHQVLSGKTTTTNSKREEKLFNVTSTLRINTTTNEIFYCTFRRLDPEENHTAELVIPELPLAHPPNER

In the case of `COc1cc(-c2cccc(-c3cccc(-c4cc5c(c(OC)c4)C(N4CC(C(=O)O)C4)CC5)c3Cl)c2Cl)cc2c1C(N1CC(C(=O)O)C1)CC2` (centres unmarked) [Compound M-1B], in assay [1] (setting [3]), the IC50 is no more than 0.01 µM. The EC50 in assay [2] was 0.1 to 1 µM.
Consider `COc1nc(-c2cccc(-c3cccc(-c4cc5c(c(OC)n4)[C@H](N4CC6(CN(C(C)=O)C6)C4)CC5)c3Cl)c2F)cc2c1[C@H](N1CC3(CN(C(C)=O)C3)C1)CC2` (single isomer, unassigned) [Compound L-11], for which the IC50 in assay [1] (setting [3]) and in assay [1] (setting [4]) was no more than 0.01 µM throughout. The same compound displayed an EC50 in assay [2] of no more than 0.01 µM.
On to `O=C(O)C1CN([C@@H]2CCc3cc(-c4cccc(-c5cccc(-c6ccc7c(c6)CC[C@H]7N6CC(C(=O)O)C6)c5Cl)c4Cl)ccc32)C1` (single isomer, unassigned) [Compound M-3B], for which, in assay [1] (setting [3]), the IC50 is no more than 0.01 µM. In addition, the EC50 in assay [2] lay within 0.1 to 1 µM.
`CCOC(=O)C1CN([C@@H]2CCc3cc(-c4cccc(-c5cccc(-c6ccc7c(c6)CC[C@H]7N6CC(C(=O)O)C6)c5Cl)c4Cl)ccc32)C1` (single isomer, unassigned) [Compound M-3A]: in assay [1] (setting [3]), the IC50 is no more than 0.01 µM. Also, the EC50 in assay [2] lay in the range of 0.1 to 1 µM.
Turning to `COc1nc(-c2cccc(-c3cccc(-c4cc5c(c(OC)n4)[C@@H](N4CC6(CCC(=O)N6)C4)CC5)c3Cl)c2F)cc2c1[C@@H](N1CC3(CCC(=O)N3)C1)CC2` (single isomer, unassigned) [Compound L-9], the IC50 in assay [1] (setting [3]) and in assay [1] (setting [4]) was no more than 0.01 µM throughout. The compound further had an EC50 in assay [2] of no more than 0.01 µM.
On to `COc1cc(-c2cccc(-c3cccc(-c4cc5c(c(OC)c4)[C@H](N4CC(C(=O)O)C4)CC5)c3Cl)c2Cl)cc2c1[C@H](N1CC(C(=O)O)C1)CC2` (single isomer, unassigned) [Compound M-4B], for which, in assay [1] (setting [3]), the IC50 was in the range of 0.01 to 0.1 µM. Moreover, in assay [2], the “PD-1/PD-L1 NFAT Reporter Assay” value was “n.r”.
On to `CCOC(=O)C1CN([C@H]2CCc3cc(-c4cccc(-c5cccc(-c6ccc7c(c6)CC[C@@H]7N6CC(C(=O)OCC)C6)c5Cl)c4Cl)ccc32)C1` (single isomer, unassigned) [Compound L-6], for which the IC50 in assay [1] (setting [3]) is no more than 0.01 µM. In addition, the EC50 in assay [2] fell in the range of 1 to 10 µM.
For the compound `CCOC(=O)C1CN([C@H]2CCc3cc(-c4cccc(-c5cccc(-c6cc7c(c(OC)c6)[C@@H](N6CC(C(=O)OCC)C6)CC7)c5Cl)c4Cl)cc(OC)c32)C1` (single isomer, unassigned) [Compound L-4], the IC50 in assay [1] (setting [3]) is no more than 0.01 µM. Further, the concentration for a half-maximal effect (EC50) in assay [2] is 0.1 to 1 µM.
As for `CCOC(=O)C1CN([C@@H]2CCc3cc(-c4cccc(-c5cccc(-c6cc7c(c(OC)c6)[C@H](N6CC(C(=O)OCC)C6)CC7)c5Cl)c4Cl)cc(OC)c32)C1` (single isomer, unassigned) [Compound L-5], the IC50 in assay [1] (setting [3]) lay in the range of 0.1 to 1 µM. The “PD-1/PD-L1 NFAT Reporter Assay” value in assay [2] was “n.r”.
`COc1nc(-c2cccc(-c3cccc(-c4cc5c(c(OC)n4)[C@@H](NC[C@@H]4CCC(=O)N4)CC5)c3Cl)c2F)cc2c1[C@@H](NC[C@@H]1CCC(=O)N1)CC2` [Compound L-8]: the IC50 in assay [1] (setting [3]) and in assay [1] (setting [4]) was no more than 0.01 µM each time. Further, the 50% effective concentration (EC50) in assay [2] is no more than 0.01 µM.
Consider `COc1nc(-c2cccc(-c3cccc(-c4cc5c(c(OC)n4)[C@@H](N4CC6(CN(C(C)=O)C6)C4)CC5)c3Cl)c2F)cc2c1[C@@H](N1CC3(CN(C(C)=O)C3)C1)CC2` (single isomer, unassigned) [Compound L-10], for which the IC50 in assay [1] (setting [3]) and in assay [1] (setting [4]) was no more than 0.01 µM each time. Further, in assay [2], the 50% effective concentration (EC50) is greater than 10 µM.
In assay [2], `COc1nc(-c2cccc(-c3cccc(-c4cc5c(c(OC)n4)[C@@H](N4CC(C(=O)O)C4)CC5)c3Cl)c2Cl)cc2c1[C@@H](NC[C@@H]1CCC(=O)N1)CC2` (single isomer, unassigned) [Compound N-1B] had an EC50 of no more than 0.01 µM.
On to `COc1cc(-c2cccc(-c3cccc(-c4cc5c(c(OC)c4)[C@H](NC[C@@H]4CCC(=O)N4)CC5)c3Cl)c2Cl)cc2c1[C@H](NC[C@@H]1CCC(=O)N1)CC2` (single isomer, unassigned) [Compound L-1], for which, in assay [2], the EC50 lay in the range of 0.01 to 0.1 µM.
As to `CCOC(=O)C1CN([C@H]2CCc3cc(-c4cccc(-c5cccc(-c6ccc7c(c6)CC[C@@H]7N6CC(C(=O)O)C6)c5Cl)c4Cl)ccc32)C1` (single isomer, unassigned) [Compound M-2A], the IC50 in assay [1] (setting [3]) was no more than 0.01 µM. The compound further displayed a concentration giving a half-maximal response (EC50) in assay [2] of 0.1 to 1 µM.
On to `COCCN1CCc2c(cc(-c3cccc(-c4cccc(-c5cc6c(c(OC)n5)CCN(CCOC)C6)c4Cl)c3Cl)nc2OC)C1` [Compound O-1], for which, in assay [1] (setting [3]), the IC50 was no more than 0.01 µM. The EC50 in assay [2] fell in the range of 1 to 10 µM.
Regarding `CCOC(=O)C1CN(C2CCc3cc(-c4cccc(-c5cccc(-c6cc7c(c(OC)n6)CCN(CCOC)C7)c5Cl)c4Cl)cc(OC)c32)C1` (single isomer, unassigned) [Compound O-2A], the EC50 in assay [2] lay within 0.1 to 1 µM.
In the case of `CCOC(=O)C1CN([C@@H]2CCc3cc(-c4cccc(-c5cccc(-c6ccc7c(c6)CC[C@H]7N6CC(C(=O)OCC)C6)c5Cl)c4Cl)ccc32)C1` (single isomer, unassigned) [Compound L-7], in assay [1] (setting [3]), the IC50 is no more than 0.01 µM. Moreover, in assay [2], the EC50 was 0.1 to 1 µM.
Turning to `O=C(O)C1CN([C@H]2CCc3cc(-c4cccc(-c5cccc(-c6ccc7c(c6)CC[C@@H]7N6CC(C(=O)O)C6)c5Cl)c4Cl)ccc32)C1` (single isomer, unassigned) [Compound M-2B], the IC50 in assay [1] (setting [3]) was no more than 0.01 µM. In assay [2], this compound gave an EC50 of 0.1 to 1 µM.
On to `COc1cc(-c2cccc(-c3cccc(-c4cc5c(c(OC)c4)[C@@H](N4CC(C(=O)O)C4)CC5)c3Cl)c2Cl)cc2c1[C@H](NC[C@@H]1CCC(=O)N1)CC2` (single isomer, unassigned) [Compound N-3B], for which the EC50 in assay [2] was in the range of 0.01 to 0.1 µM.

These data come from patent US11760764B2, “Methods and compositions for targeting PD-L1” (Aligos Therapeutics, Inc., priority 2020, dated 2023).
